According to patent US20110207760A1, “SN-38 COMPOSITIONS” (priority 2010, published 2011):

Columns and labels:
[1] = Pharmacokinetics of SN-38 and SN-38G after i.v. dosing of SN-38 in 40% SBECD; format: in vivo, Female Sprague-Dawley rats; settings: female, Sprague-Dawley, rat, in vivo, iv
Procedure: Female Sprague-Dawley rats, 4 animals per group received i.v. injections of SN-38 (doses 0.65 mg/kg and 2 mg/kg) in 40% SBECD. The SN-38 solution for the treatment was prepared by the dilution of concentrated composition of the Example 1 with water. The blood plasma samples were collected from each group of animals, extracted using liquid extraction with cold methanol/acetonitrile mixture (1:1 v/v), and analyzed using a HPLC method with fluorescent detection. The results, including levels of SN-38 and SN-38G in plasma and calculated values of area under the curve (AUC) for SN-38 and SN-38G are presented in Tables 5 and 6 below.

[2] = Dissolution of SN-38 in 60% (w/w) aqueous SBECD at 34° C. (HPLC); format: physicochemical; settings: Example 2: 60% (w/w) aqueous SBECD, 48 hours, filtered
Procedure: (§1) Aliquots of the resultant SN-38 composition in aqueous SBECD were diluted 6 times with water, and further diluted with 10% (w/w) aqueous SBECD to obtain samples having a concentration suitable for HPLC analysis. The samples were analyzed by HPLC using column Symmetry Shield C18 3.5 μ, 50×4.6 mm (Waters), water (0.1% TFA)—acetonitrile (0.1% TFA) gradient and UV detection at 225 nm and 260 nm. The concentrations of SN-38 in the samples were determined by comparison of the area under the peak with the results obtained from analysis of standard solutions.
A sample of 4 g of 60% (w/w) aqueous SBECD was mixed with 2 mg of SN-38, and the mixture was incubated at 34° C. with constant mixing for 48 hours. The mixture was then filtered through 0.2 micrometer nylon filter and analyzed by HPLC as described in Example 1. The concentration of SN-38 in solution was 0.16 mg/g.

[3] = room temperature; cited from earlier work
[4] = Physical stability of SN-38 in diluted aqueous cyclodextrin solutions (HPLC); format: physicochemical; settings: for Concentration of SN-38 relative to time 0 h: room temperature
Procedure: as §1
The SN-38 solution prepared as in the Example 1 was diluted with water, by weight, to obtain solutions containing respectively 5% SBECD, 10% SBECD, and 20% SBECD. All solutions were kept at room temperature and periodically analyzed by HPLC using the method described in the Example 1.
(§2) A solution of SN-38 in hydroxypropyl beta-cyclodextrin (HPbCD) was prepared using the procedure described in the Example 1. This solution was subsequently diluted with water, by weight, to obtain HPbCD concentration 20%. The relative change of SN-38 concentration in this solution after 70 hours was determined as described above, and is noted in Table 3 below.
as §2, with “in dimethyl” for “in hydroxypropyl”, “beta-cyclodextrin (DMbCD)” for “beta-cyclodextrin (HPbCD)”, “obtain DMbCD” for “obtain HPbCD”, “after 22.5” for “after 70”, “Table 4” for “Table 3”

topoisomerase I enzyme = target: T1, topoisomerase I enzyme (Homo sapiens, UniProt P11387); settings: estimated; times more active than irinotecan; cited from earlier work
T1 sequence (P11387 1-765): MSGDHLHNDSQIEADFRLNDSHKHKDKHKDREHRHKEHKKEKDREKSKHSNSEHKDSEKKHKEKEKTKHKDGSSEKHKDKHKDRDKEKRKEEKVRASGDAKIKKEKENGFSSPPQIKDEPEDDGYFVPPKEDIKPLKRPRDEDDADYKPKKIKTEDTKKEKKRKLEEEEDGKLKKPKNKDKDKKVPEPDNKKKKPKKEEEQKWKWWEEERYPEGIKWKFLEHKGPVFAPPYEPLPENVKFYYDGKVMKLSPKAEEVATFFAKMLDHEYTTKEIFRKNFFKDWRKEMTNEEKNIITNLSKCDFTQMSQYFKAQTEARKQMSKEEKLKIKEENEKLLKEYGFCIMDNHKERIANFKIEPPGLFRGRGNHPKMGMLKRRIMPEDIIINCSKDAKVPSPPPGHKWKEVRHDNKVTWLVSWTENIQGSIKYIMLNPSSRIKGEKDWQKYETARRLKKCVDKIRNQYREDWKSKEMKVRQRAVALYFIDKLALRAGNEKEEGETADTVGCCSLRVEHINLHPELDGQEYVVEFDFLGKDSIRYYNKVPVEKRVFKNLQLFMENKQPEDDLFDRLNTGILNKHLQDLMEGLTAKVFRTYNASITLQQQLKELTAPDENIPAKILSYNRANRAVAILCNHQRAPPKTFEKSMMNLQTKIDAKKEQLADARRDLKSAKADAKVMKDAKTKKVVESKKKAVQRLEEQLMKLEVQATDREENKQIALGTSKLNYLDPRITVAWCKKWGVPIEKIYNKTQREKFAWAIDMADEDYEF

In the case of `CCc1c2c(nc3ccc(O)cc13)-c1cc3c(c(=O)n1C2)COC(=O)[C@]3(O)CC` [SN-38, (4S)-4,11-Diethyl-4,9-dihydroxy-1H-pyrano[3′,4′:6,7]indolizino[1,2-b]quinoline-3,14(4H,12H)dione], the AUC ([1]; 0.65 mg/kg) is reported as 106 ng·h/mL, the “Ratio AUC SN-38/SN-38G” value ([1]; 0.65 mg/kg) is reported as 0.39 and the concentration at 0.17 h ([1]; 0.65 mg/kg) is reported as 157 ng/mL. For the same molecule, the concentration at 0.5 h ([1]; 0.65 mg/kg) was 41.3 ng/mL, the concentration at 0.75 h ([1]; 0.65 mg/kg) was 26.1 ng/mL and the concentration at 1 h ([1]; 0.65 mg/kg) was 18.2 ng/mL. The concentration at 3 h ([1]; 0.65 mg/kg) was 5.8 ng/mL, the concentration at 6 h ([1]; 0.65 mg/kg) was 1.2 ng/mL and the AUC ([1]; 2 mg/kg) was 323 ng·h/mL. The concentration at 0.17 h ([1]; 2 mg/kg) was 625 ng/mL, the concentration at 0.5 h ([1]; 2 mg/kg) was 157 ng/mL and the concentration at 0.75 h ([1]; 2 mg/kg) was 51.4 ng/mL. It also gave a concentration at 1 h ([1]; 2 mg/kg) of 29.8 ng/mL, a concentration at 3 h ([1]; 2 mg/kg) of 5.5 ng/mL and a concentration at 6 h ([1]; 2 mg/kg) of 5.3 ng/mL. The “concentration of SN-38 in solution” value [2] was 0.16 mg/g, the solubility in water [3] was “about 0.00008 mg/mL” and the “Concentration of SN-38 relative to time 0 h” value ([4]; 5% SBECD, 0 h) was 100.0. The “Concentration of SN-38 relative to time 0 h” value ([4]; 5% SBECD, 5 h) was 96.6, the “Concentration of SN-38 relative to time 0 h” value ([4]; 5% SBECD, 23 h) was 91.4 and the “Concentration of SN-38 relative to time 0 h” value ([4]; 5% SBECD, 47 h) was 85.2. The “Concentration of SN-38 relative to time 0 h” value ([4]; 5% SBECD, 71 h) was 79.2, the “Concentration of SN-38 relative to time 0 h” value ([4]; 5% SBECD, 98 h) was 77.9 and the “Concentration of SN-38 relative to time 0 h” value ([4]; 10% SBECD, 0 h) was 100.0. The “Concentration of SN-38 relative to time 0 h” value ([4]; 10% SBECD, 5 h) was 97.9, the “Concentration of SN-38 relative to time 0 h” value ([4]; 10% SBECD, 23 h) was 94.9 and the “Concentration of SN-38 relative to time 0 h” value ([4]; 10% SBECD, 47 h) was 90.8. For the same molecule, the “Concentration of SN-38 relative to time 0 h” value ([4]; 10% SBECD, 71 h) was 87.7, the “Concentration of SN-38 relative to time 0 h” value ([4]; 10% SBECD, 98 h) was 85.5 and the “relative change of SN-38 concentration” value ([4]; 20% DMbCD, 0 h) was 100.0. For the same molecule, the “relative change of SN-38 concentration” value ([4]; 20% DMbCD, 22.5 h) was 42.5, the “relative change of SN-38 concentration” value ([4]; 20% HPbCD, 0 h) was 100.0 and the “relative change of SN-38 concentration” value ([4]; 20% HPbCD, 70 h) was 63.0. For the same molecule, the “Concentration of SN-38 relative to time 0 h” value ([4]; 20% SBECD, 0 h) was 100.0, the “Concentration of SN-38 relative to time 0 h” value ([4]; 20% SBECD, 5 h) was 99.5 and the “Concentration of SN-38 relative to time 0 h” value ([4]; 20% SBECD, 23 h) was 97.6. The “Concentration of SN-38 relative to time 0 h” value ([4]; 20% SBECD, 47 h) was 96.3, the “Concentration of SN-38 relative to time 0 h” value ([4]; 20% SBECD, 71 h) was 95.1 and the “Concentration of SN-38 relative to time 0 h” value ([4]; 20% SBECD, 98 h) was 93.2. For the same molecule, the “activity relative to irinotecan” value (topoisomerase I enzyme) was “up to 1000 times”.
